Data as given in patent US20030119792A1, “Method of inhibiting the production and/or effects of intestinal pro-inflammatory cytokines, prostaglandins and others” (priority 2001, published 2003).
Entries after “also recorded” stand apart in the source; their conditions may differ. Marks after values point to notes of the source that are not given here.

Tests used:
[1] = test system: IL-8 production in HT-29 cells; assay: LPS-stimulated IL-8 production in HT-29 cell cultures; type: cell-based, human; settings: for effect on IL-8 basal production: no LPS
Method: The human colon adenocarcinoma cell line HT-29, obtained from the Cell Culture Unit of the University of Granada (Granada, Spain) (ECACC reference number: 91072201), is used as a model of intestinal epithelium to test the ability of the different compounds to inhibit the production/release of IL-8. Cells are grown in Dulbecco's modified Eagle's medium supplemented with 10% fetal bovine serum (Boehringer Mannheim, Mannheim, Germany), 2 mM L-glutamine, 50,000 u l^−1 penicillin/streptomycin and 2.5 mg ml^−1 amphotericin B, in a humidified 5% CO2 atmosphere at 37° C. Cells are seeded into 12-well plates and grown to confluence. […] After 20 h, supernatants are collected, centrifuiged to remove debris at 7,000 g for 10 min and stored at −80° C. for the determination of IL-8 levels by enzyme-linked immunosorbent assay (Biosource International, Nivilles, Belgium).

[2] = test system: IL-1β production in THP-1 cells; assay: LPS and PMA-stimulated IL-1β production in THP-1 cells; type: cell-based, human; settings: for effect on stimulated IL-1β production (in words): 10^−7 to 10^−4 M
Method: The human monocytic cell line THP-1 is obtained from the Cell Culture Unit of the University of Granada (Granada, Spain) (ECACC reference number: 88081201) and used to assay the effects of the different compounds on IL-1 production. These cells are cultured in RPMI 1640 (Life Technologies, Paisley, UK) supplemented with 10% fetal bovine serum (Life Technologies), 2 mM glutamine and 0.05 mM mercaptoethanol in a humidified 5% CO2 atmosphere at 37° C. Cells are seeded onto 24-well plates at a density of 2×10^6 cells ml^−1 and pre-incubated during 30 min with the different test compounds, at concentrations ranging from 10^−7 to 10^−4 M, and then stimulated with 1 μg ml^−1 LPS and 1 μM phorbol 12-myristate 13-acetate (PMA). After 20 h, plates are centrifuged at 1,000 g for 10 min and supematants are collected and stored at −80° C. for the determination of IL-1 levels by EIA using a kit system (Amersham Pharmacia Biotech, Buckinghamshire, UK).

[3] = test system: TNF-α production in U-937 cells; assay: LPS-stimulated TNF-α production in PMA-differentiated U-937 cells; type: cell-based, human; settings: for effect on TNF-α production (in words): differentiated U-937 cells, LPS 4 h, 10^−6 to 10^−4 M
Method: The cells are cultured in RPMI 1640 (Life Technologies) supplemented with 10% fetal bovine serum and 2 mM glutamine in a humidified 5% CO2 atmosphere at 37° C. Cell concentration is adjusted to 0.5×10^6 cells ml, and monocytic differentiation is induced by incubation with 20 ng ml^−1 PMA for 24 h. After that, cells are harvested, centrifuged at 200 g for 5 min and plated onto 48-well plates at 210^6 cells ml^−1, pre-incubated for 30 min with the test compounds at concentrations ranging from 10^−6 to 10^−4 M, and stimulated with 0.1 μg ml^−1 LPS. After 4 h, plates are centrifuged at 1,000 g for 10 min and supernatants are collected and stored at −80° C. for the quantification of the TNF-α released in the culture medium by EIA using a commercial kit (R&D, Minneapolis, Minn., USA).

[4] = test system: HT-29, THP-1 and U-937 cells; settings: any assayed concentration, any cell types used
Method: Test compounds are prepared at 600 μM stock solution in PBS and further working dilutions are performed in culture medium. Percentage inhibition of cytokine production is calculated for every drug concentration.
The test compounds are prepared at 600 μM stock solution in PBS and further working dilutions are performed in culture medium. Percentage inhibition of cytokine production is calculated for every drug concentration.

[5] = test system: TNBS-induced rat colitis; settings: cited from earlier work
[6] = test system: TNF-α production in mononuclear cells; assay: TNF-α production in mononuclear cells (FIG. 8); type: cell-based; settings: 10 uM
Source text: FIG. 8. Effects of UR-12746-S in the production of TNF-α in mononuclear cells.

[7] = test system: reactivated TNBS colitis; assay: Reactivated TNBS colitis in rats: macroscopic colonic damage; type: in vivo, rat
Method: (§1) Colitis is induced by the method originally described by Morris et al. (1989), with minor modifications. Female Wistar rats (180-220 g) obtained from the Laboratory Animal Service of the University of Granada (Granada, Spain) are randomly distributed in several experimental groups. Animals are housed in makrolon cages (3-4 rats per cage) and maintained in an air-conditioned animal room with a 12 h light-dark cycle, and they are provided with free access to tap water and food (Panlab A.04). Animals are fasted overnight and anaesthetized with halothane. Under anesthesia, animals received 10 mg of TNBS dissolved in 0.25 ml of 50% ethanol (v v^−1) by means of a Teflon cannula inserted 8 cm through the anus. During and after TNBS administration rats are kept in a head-down position until they recovered from anesthesia, and then returned to their cage. […] Two additional groups are also included for reference: a non colitic group receiving intracolonically 0.25 ml of phosphate buffer saline (pH=7.4) and another colitic group which received only the first dose of TNBS (control group without relapse); both groups are orally administered with vehicle.
(§2) Animals are sacrificed with an overdose of halothane, and the entire colon is removed. The colonic segments are placed on an ice-cold plate, cleaned of fat and mesentery, and blotted on filter paper. Each specimen is weighed and its length measured under a constant load (2 g). […] The colon is subsequently divided longitudinally in 3 pieces for biochemical determinations. […] MPO activity is measured according to the technique described by Krawisz et al. (1984); the results are expressed as MPO units per gram of wet tissue and one unit of MPO activity is defined as that degrading 1 μmol min^−1 of hydrogen peroxide at 25° C. Samples for the determination of TNF-α and IL-1 synthesis are immediately weighed, minced on an ice-cold plate and suspended in a tube with 10 mM sodium phosphate buffer, pH=7.4, 1:5 w v^−1. The tubes are placed in a shaking water bath at 37° C. for 20 min and centrifuged at 9000 g for 30 s at 4° C. The supernatants are frozen at −80° C. until assay and cytokines are quantified by enzyme-linked immunosorbent assay (Amersham Pharmacia Biotech). All biochemical measurements are completed within one week from the time of sample collection and are performed in duplicate.

[8] = test system: colonic myeloperoxidase (MPO) activity; assay: Reactivated TNBS colitis in rats: colonic MPO activity; type: in vivo, rat
Method: as §1
as §2, with “Samples for the determination of TNF-α and IL-1 synthesis are immediately weighed, minced on an ice-cold plate and suspended in a tube with 10 mM sodium phosphate buffer, pH=7.4, 1:5 w v^−1. The tubes are placed in a shaking water bath at 37° C. for 20 min and centrifuged at 9000 g for 30 s at 4° C.” left out, “All biochemical measurements are completed within one week from the time of sample collection and are performed in duplicate.” left out

[9] = test system: colonic IL-1β levels; assay: Reactivated TNBS colitis in rats: colonic IL-1β levels; type: in vivo, rat; settings: FIG. 5
Method: (§3) Colitis is induced by the method originally described by Morris et al. (1989), with minor modifications. Female Wistar rats (180-220 g) obtained from the Laboratory Animal Service of the University of Granada (Granada, Spain) are randomly distributed in several experimental groups. Animals are housed in makrolon cages (3-4 rats per cage) and maintained in an air-conditioned animal room with a 12 h light-dark cycle, and they are provided with free access to tap water and food (Panlab A.04). Animals are fasted overnight and anaesthetized with halothane. Under anesthesia, animals received 10 mg of TNBS dissolved in 0.25 ml of 50% ethanol (v v^−1) by means of a Teflon cannula inserted 8 cm through the anus. […]
(§4) Animals are sacrificed with an overdose of halothane, and the entire colon is removed. […] Each specimen is weighed and its length measured under a constant load (2 g). […] MPO activity is measured according to the technique described by Krawisz et al. (1984); the results are expressed as MPO units per gram of wet tissue and one unit of MPO activity is defined as that degrading 1 μmol min^−1 of hydrogen peroxide at 25° C. […] The supernatants are frozen at −80° C. until assay and cytokines are quantified by enzyme-linked immunosorbent assay (Amersham Pharmacia Biotech). […]

[10] = test system: colonic TNF-α levels; assay: Reactivated TNBS colitis in rats: colonic TNF-α levels; type: in vivo, rat; settings: FIG. 6
Method: as §3, §4

[11] = 25 mg kg^−1 oral daily, 3 wk (after second TNBS)
[12] = 25 mg kg^−1 oral daily, 4 wk (after second TNBS)
[13] = 50 mg kg^−1 oral daily, 3 wk (after second TNBS)
[14] = 50 mg kg^−1 oral daily, 4 wk (after second TNBS)
[15] = two weeks after the initial colonic challenge

Nc1ccc(O)c(C(=O)O)c1 [5-ASA, 5-aminosalicylic acid]
inhibition at 1 µM ([1]; Homo sapiens, LPS, achieved at 10^−6 M, not higher up to 10^−4 M, read-out: maximum inhibitory effect on LPS-stimulated IL-8 production): 30 to 40%
effect on IL-8 basal production [1]: no significant effect
effect on stimulated IL-1β production (in words) [2]: only a weak effect; also recorded: weak inhibitory activity
inhibition of stimulated IL-1β production ([2]; the different concentrations assayed): 10-20%
effect on TNF-α production (in words) [3]: devoid of any significant effect; also recorded: inactive

Cc1nc2cnccc2n1CC1CCN(C(=O)C=C(c2ccccc2)c2ccc(N=Nc3ccc(O)c(C(=O)O)c3)cc2)CC1 [trans-1-[[1-[3-[4-(4-hydroxy-3-carboxyphenylazo)phenyl]-3-phenylpropenoyl]-4-piperidyl]methyl]-1H-2-methylimidazole [4,5-c] pyridine]
viability (trypan blue exclusion) [4]: higher than 95%

Cc1nc2cnccc2n1CC1CCN(C(=O)C=C(c2ccccc2)c2ccc(/N=N\c3ccc(O)c(C(=O)O)c3)cc2)CC1 [UR-12746 free acid, (Z)-2-hydroxy-5-[[4-[3-[4-[(2-methyl-1H-imidazo[4,5-c]pyridin-1-yl)methyl]-1-piperidinyl]-3-oxo-1-phenyl-1-propenyl]phenyl]azo] benzoic acid]
IL-1β production ([5]; 50-100 mg/kg, 4 week time span): reduce IL-1β production
Platelet Activating Factor (PAF) activity ([5]; 50-100 mg/kg, 4 week time span): inhibit Platelet Activating Factor (PAF) activity
colonic myeloperoxidase (MPO) activity ([5]; 50-100 mg/kg, 4 week time span): reduce colonic myeloperoxidase (MPO) activity
LTB4 production ([5]; only at 100 mg/kg and only after 3 and 4 weeks of administration): reduce LTB4 production
colonic damage ([5]; only at the 100 mg/kg dosage): significant reduction in colonic damage

(Z)-1-[4-(3-aminophenyl)-1-oxo-3-phenyl-2-propenyl]-4-[(2-methyl-lH-imidazo[4,5-c]pyridin-1-yl)methyl] piperidine [UR-12715]
effect on IL-8 basal production [1]: no significant effect
effect on stimulated IL-1β production (in words) [2]: inhibited; also recorded: inhibits the stimulated cytokine production in a concentration-dependent way
effect on TNF-α production (in words) [3]: inhibited; also recorded: concentration-dependent inhibitory effect

Cc1nc2cnccc2n1CC1CCN(C(=O)C=C(c2ccccc2)c2ccc(/N=N\c3ccc(O)c(C(=O)[O-])c3)cc2)CC1.[Na+] [UR-12746-S, (Z)-2-hydroxy-5-[[4-[3-[4-[(2-methyl-1H-imidazo[4,5-c]pyridin-1-yl)methyl]-1-piperidinyl] -3-oxo-1-phenyl-1-propenyl]phenyl]azo] benzoic acid sodium salt]
potency in inhibiting TNF-α production compared to the individual components, a combination of the components and sulfasalazine ([3]; U-937 cells, FIG. 7): more potent
inhibition of TNF-α production compared with UR-12715 or a combination of UR-12715 and 5-ASA [6]: to a greater extent
colonic weight/length ratio, mean ± s.e.mean ([7]; 25 mg kg^−1 oral daily, 1 wk): 146.6 ± 8.1 mg/cm
damage score (0-10), median (range) ([7]; 25 mg kg^−1 oral daily, 1 wk): 5.5 (4-6)
colonic weight/length ratio, mean ± s.e.mean ([7]; 25 mg kg^−1 oral daily, 2 wk): 143.6 ± 4.9 mg/cm
damage score (0-10), median (range) ([7]; 25 mg kg^−1 oral daily, 2 wk): 5 (4-5)
colonic weight/length ratio, mean ± s.e.mean [7, 11]: 150.5 ± 4.3 mg/cm
damage score (0-10), median (range) [7, 11]: 5 (4-6)
colonic weight/length ratio, mean ± s.e.mean [7, 12]: 143.2 mg/cm
damage score (0-10), median (range) [7, 12]: 5 (2-6)
colonic weight/length ratio, mean ± s.e.mean ([7]; 50 mg kg^−1 oral daily, 1 wk): 137.0 ± 8.4 mg/cm
damage score (0-10), median (range) ([7]; 50 mg kg^−1 oral daily, 1 wk): 4.5 (4-6)
colonic weight/length ratio, mean ± s.e.mean ([7]; 50 mg kg^−1 oral daily, 2 wk): 120.0 ± 5.9 mg/cm
damage score (0-10), median (range) ([7]; 50 mg kg^−1 oral daily, 2 wk): 4 (3-5)
colonic weight/length ratio, mean ± s.e.mean [7, 13]: 142.3 ± 3.1 mg/cm
damage score (0-10), median (range) [7, 13]: 4 (3-5)*
colonic weight/length ratio, mean ± s.e.mean [7, 14]: 110.8 mg/cm
damage score (0-10), median (range) [7, 14]: 3 (2-4)*
colonic macroscopic damage score and colonic weight/length ratio after reactivation, compared with control colitic animals without relapse ([7]; after second TNBS dose): no statistical differences
colonic MPO activity after colitis relapse ([8]; 25 and 50 mg kg^−1, after second TNBS, FIG. 4): prevent the increased activity
colonic MPO activity ([8]; 25 and 50 mg kg^−1, first two weeks after the initial TNBS, FIG. 4): reduction in colonic MPO activity
effect in reducing MPO activity in comparison with sulphasalazine ([8]; same doses, same experimental conditions): higher effect
colonic IL-1β levels after second administration of TNBS ([9]; after second TNBS): effectively prevents the increase in IL-1β levels
colonic IL-1β levels [9, 15]: decrease colonic IL-1β levels significantly
colonic TNF-α levels after second administration of TNBS ([10]; 50 mg kg^−1, after second TNBS): significantly reduced
colonic TNF-α levels [10, 15]: without showing any significant effect
